Source: patent US12686687B2, “Compounds and uses thereof” (Foghorn Therapeutics Inc., priority 2019, dated 2026)

Experiments:
[1] = biological target: T1, Nanoluciferase-BRD9 fusion protein (3×FLAG-NLuc-BRD9) in SYO-1 cells (Homo sapiens, UniProt Q9H8M2); assay: SYO1 BRD9 NanoLuc degradation assay; type: cell-based; details: 6 hours treatment, 1 μM top dose; read-out: SYO1 BRD9-NanoLuc degradation IC50
T1 construct: expressed in transfected cells; host or cells: SYO-1
T1 sequence (Q9H8M2 1-597): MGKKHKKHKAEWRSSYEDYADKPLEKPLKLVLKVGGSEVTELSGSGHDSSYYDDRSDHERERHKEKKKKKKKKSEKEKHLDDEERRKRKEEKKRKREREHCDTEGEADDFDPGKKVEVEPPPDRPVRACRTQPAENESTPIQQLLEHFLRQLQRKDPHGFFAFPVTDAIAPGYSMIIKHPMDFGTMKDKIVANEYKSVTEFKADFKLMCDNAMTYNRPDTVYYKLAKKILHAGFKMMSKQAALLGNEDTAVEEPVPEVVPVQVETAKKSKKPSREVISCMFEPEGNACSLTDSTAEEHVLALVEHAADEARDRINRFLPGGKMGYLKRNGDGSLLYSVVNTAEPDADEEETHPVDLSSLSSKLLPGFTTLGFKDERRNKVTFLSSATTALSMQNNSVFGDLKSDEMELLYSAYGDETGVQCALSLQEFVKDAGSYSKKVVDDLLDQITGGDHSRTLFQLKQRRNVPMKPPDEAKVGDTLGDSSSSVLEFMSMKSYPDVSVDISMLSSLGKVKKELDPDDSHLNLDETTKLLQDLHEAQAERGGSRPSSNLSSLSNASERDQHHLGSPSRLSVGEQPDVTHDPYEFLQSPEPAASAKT
Method in brief: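 Stable SYO-1 line expressing 3×FLAG-NLuc-BRD9 was seeded at 8000 cells/well, then treated next day for 6 h with 10-point 3-fold dilutions (top 1 μM final). Nano-Glo luminescence was read. % inhibition was normalised to DMSO (high control) and 1 μM reference BRD9 degrader (low control).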

[2] = biological target: T2, BRD9 bromodomain (Flag-BRD9 P133-K239; Swiss Prot Q9H8M2) (Homo sapiens, UniProt Q9H8M2); assay: BRD9 bromodomain TR-FRET competition binding assay; details: 3 nM Flag-BRD9, 3.75 nM biotinylated ligand, 90 minutes at room temperature
T2 construct: His-Flag-BRD9 (P133-K239); Swiss Prot Q9H8M2; His6 with TEV site (mgsshhhhhhenlyfq/) (N, cleaved yes); made in house
T2 sequence (Q9H8M2 133-239): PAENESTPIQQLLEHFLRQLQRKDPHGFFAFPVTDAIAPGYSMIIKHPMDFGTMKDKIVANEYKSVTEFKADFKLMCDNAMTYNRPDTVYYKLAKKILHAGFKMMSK
Procedure: Cleaved His tag was removed by purification. […] DMSO or 3-fold serially diluted compounds were then added to the Proxiplate followed by addition of Flag-BRD9. After a 10-minute incubation at room temperature, Eu-W1024 anti-FLAG (PerkinElmer, AD0273) was added.

| DC50 [1] [nM] | IC50 [2] [nM] | SMILES |
| --- | --- | --- |
| > 1000 | > 10 | COc1cc(-c2cn(C)c(=O)c3cc(NC(=O)C4CCCN(CCCCCOc5cccc6c5C(=O)N(C5CCC(=O)NC5=O)C6=O)C4)sc23)cc(OC)c1CN(C)C (centres unmarked) [Compound D9, N-(7-[4-[(dimethylamino)methyl]-3,5-dimethoxyphenyl]-5-methyl-4-oxothieno[3,2-c]pyridin-2-yl)-1-(5-[[2-(2,6-dioxopiperidin-3-yl)-1,3-dioxoisoindol-4-yl]oxy]pentyl)piperidine-3-carboxamide] |
| < 10 | < 10 | COc1cc(-c2cn(C)c(=O)c3cc(C(=O)NC4CCN(CCCCCOc5cccc6c5C(=O)N(C5CCC(=O)NC5=O)C6=O)CC4(F)F)sc23)cc(OC)c1CN(C)C (centres unmarked) [Compound D13, 7-[4-[(dimethylamino)methyl]-3,5-dimethoxyphenyl]-N-[1-(5-[[2-(2,6-dioxopiperidin-3-yl)-1,3-dioxoisoindol-4-yl]oxy]pentyl)-3,3-difluoropiperidin-4-yl]-5-methyl-4-oxothieno[3,2-c]pyridine-2-carboxamide] |
| < 10 | < 10 | COc1cc(-c2cn(C)c(=O)c3cc(C(=O)NC4CCN(CCCCCOc5ccc6c(c5)C(=O)N(C5CCC(=O)NC5=O)C6=O)CC4(F)F)sc23)cc(OC)c1CN(C)C (centres unmarked) [Compound D15, 7-[4-[(dimethylamino)methyl]-3,5-dimethoxyphenyl]-N-[1-(5-[[2-(2,6-dioxopiperidin-3-yl)-1,3-dioxoisoindol-5-yl]oxy]pentyl)-3,3-difluoropiperidin-4-yl]-5-methyl-4-oxothieno[3,2-c]pyridine-2-carboxamide] |
| > 100 | > 100 | COc1cc(-c2cn(C)c(=O)c3cc(NC(=O)[C@H]4CCCN(C(=O)CCCCOc5cccc6c5C(=O)N(C5CCC(=O)NC5=O)C6=O)C4)sc23)cc(OC)c1CN(C)C (stereo partly drawn) [Compound D8, (3S)—N-(7-[4-[(dimethylamino)methyl]-3,5-dimethoxyphenyl]-5-methyl-4-oxothieno[3,2-c]pyridin-2-yl)-1-(5-[[2-(2,6-dioxopiperidin-3-yl)-1,3-dioxoisoindol-4-yl]oxy]pentanoyl)piperidine-3-carboxamide] |
| > 1000 | < 10 | COc1cc(-c2cn(C)c(=O)c3cc(C(=O)NC4CCN(CCCCCOc5cccc6c5C(=O)N(C5CCC(=O)NC5=O)C6=O)CC4)sc23)cc(OC)c1CN(C)C (centres unmarked) [Compound D11, 7-(4-((dimethylamino)methyl)-3,5-dimethoxyphenyl)-N-(1-(5-((2-(2,6-dioxopiperidin-3-yl)-1,3-dioxoisoindolin-4-yl)oxy)pentyl)piperidin-4-yl)-5-methyl-4-oxo-4,5-dihydrothieno[3,2-c]pyridine-2-carboxamide] |
| > 1000 | < 10 | COc1cc(-c2cn(C)c(=O)c3cc(NC(=O)C4CCN(CCCCCOc5cccc6c5C(=O)N(C5CCC(=O)NC5=O)C6=O)CC4)sc23)cc(OC)c1CN(C)C (centres unmarked) [Compound D6, N-(7-[4-[(dimethylamino)methyl]-3,5-dimethoxyphenyl]-5-methyl-4-oxothieno[3,2-c]pyridin-2-yl)-1-(5-[[2-(2,6-dioxopiperidin-3-yl)-1,3-dioxoisoindol-4-yl]oxy]pentyl)piperidine-4-carboxamide] |
| < 10 | < 10 | COc1cc(-c2cn(C)c(=O)c3cc(C(=O)NC4CCN(C(=O)CCCCOc5cccc6c5C(=O)N(C5CCC(=O)NC5=O)C6=O)CC4)sc23)cc(OC)c1CN(C)C (centres unmarked) [Compound D10, 7-(4-((dimethylamino)methyl)-3,5-dimethoxyphenyl)-N-(1-(5-((2-(2,6-dioxopiperidin-3-yl)-1,3-dioxoisoindolin-4-yl)oxy)pentanoyl)piperidin-4-yl)-5-methyl-4-oxo-4,5-dihydrothieno[3,2-c]pyridine-2-carboxamide] |
